Test results taken from patent US7087620B2, “Liquid pharmaceutical formulations containing 3,7-diazabicyclo[3,3,1]nonane compounds and methods of treatment relating to anti-arrhythmic events” (Solvay Pharmaceuticals GmbH, priority 2002, dated 2006).
Like-named read-outs stand apart in the source and are kept apart here.

Key:
[1] = Two step infusion study in healthy male subjects: pharmacokinetics (Tedisamil plasma concentration); format: in vivo; details: human; for Tmax: male, iv, 0.4 mg/kg, after start of infusion, 0.4 mg/kg iv two step infusion
Protocol: (§1) A double-blind, placebo-controlled, randomized, single iv dose, two periods cross-over study to assess the safety, tolerability, pharmacodynamics and pharmacokinetics during and following a two step infusion of Tedisamil in healthy male subjects was performed with the following drug and dosages: Tedisamil dihydrochloride/0.4 mg/kg body weight infused over 30 minutes.
Subjects were included in the study only if they were healthy males, their age was in the range of 18-40 years (both inclusive), their body mass index (BMI) was between 18 kg/m^2 and 28 kg/m^2. Test product, dose and mode of administration: Tedisamil dihydrochloride; Strength: 2 mg/ml; Dose: 0.4 mg/kg body weight infused over 30 minutes, with half of the dose infused over 10 minutes and half of the dose infused over the remaining 20 minutes. Route: intravenous.
Blood samples for determination of Tedisamil plasma concentration were taken at several time points during and following intravenous drug administration in both study periods. The following pharmacokinetic parameters were determined: AUC(0-inf), AUC(0-t), Cmax, Tmax, t1/2, λz, Vss, CL, MRT and the number of data points considered for the determination of terminal half life.
Geometric means and corresponding 90% confidence intervals were calculated for the plasma concentration of tedisamil at each time-point, for AUC, AUC(0-t), CL, and Cmax.
Arithmetic means and corresponding 90% confidence intervals were calculated for the other variables (Vss, λz, t1/2, MRT). Tmax was described using minimum, median, maximum, and frequency counts. Individual and mean plasma-concentration versus time curves were plotted using both linear and semi-logarithmic scale.

[2] = system: healthy male subjects; test: Two step infusion study in healthy male subjects: safety and tolerability; format: in vivo, human; details: for Safety and tolerability: two step infusion of 0.4 mg tedisamil dihydrochloride per kg (0.32 mg/kg base)
Protocol: as §1
Screening assessments included physical examination, ECG, HIV/Hepatitis screening, blood pressure and heart rate measurements, clinical laboratory determinations, urine drug screen, alcohol breath test, and medical history. Follow-up assessments included physical examination, ECG, blood pressure and heart rate measurements, clinical laboratory determinations, and questions for adverse events and concomitant medication. During concomitant administration of Tedisamil, blood pressure, heart rate, and ECGs were recorded. Adverse events and concomitant medication were monitored throughout the study.
Subjects who received study medication, were considered valid for safety evaluation.
Treatment emergent adverse events, defined as any adverse event present at baseline that worsened or any event that began after treatment with study medication, were summarized by COSTART term for each treatment group. Each adverse event was evaluated for frequency of occurrence, duration, intensity, action taken, outcome, and relationship to administration of the study medication. Adverse events were listed for each subject.
Listings of abnormal or out of range values for each subject were presented for vital signs, laboratory assays, and physical examinations. Adverse events, blood pressure, heart rate and clinical laboratory data were analyzed descriptively and reviewed to evaluate the safety of all randomized subjects. Any clinical abnormalities were described.

[3] = system: AF/AFL patients; test: Single infusion over 10 minutes in AF/AFL patients; format: in vivo, human; details: intravenous doses of up to 0.24 mg/kg TEDI base, infused over 10 minutes

With `C1CCC2(C1)C1CN(CC3CC3)CC2CN(CC2CC2)C1` [Tedisamil, N,N′-dicyclopropylmethyl-9,9-tetramethylene-3,7-diazabicyclo[3,3,1]nonane] the AUC(0-inf) ([1]; 0.4 mg/kg tedisamil dihydrochloride iv, two step infusion over 30 minutes, read-out: AUC(0-inf), Geom. Mean) was 1720 ng·h/mL, the AUC(0-t) ([1]; 0.4 mg/kg tedisamil dihydrochloride iv, two step infusion over 30 minutes, read-out: AUC(0-t), Geom. Mean) was 1670 ng·h/mL and the clearance ([1]; 0.4 mg/kg tedisamil dihydrochloride iv, two step infusion over 30 minutes, read-out: CL, Geom. Mean) was 315 mL/min. It also gave a Cmax ([1]; 0.4 mg/kg tedisamil dihydrochloride iv, two step infusion over 30 minutes, read-out: Cmax, Geom. Mean) of 905 ng/mL, a half-life ([1]; 0.4 mg/kg tedisamil dihydrochloride iv, two step infusion over 30 minutes, read-out: t½, Arithmetic mean (converted)) of 330 min and a Tmax ([1]; read-out: Time of peak plasma concentration (Tmax), median (converted)) of 12.5 min. For the same compound, the Tmax ([1]; read-out: Time of peak plasma concentration (Tmax), range) was 5 to 75 min, the “Adverse events (AEs)” value ([2]; 0.4 mg/kg iv two step infusion, all judged probably related (injection site reaction, pain injection site, paresthesia)) was “six AEs were observed in five subjects” and the “Systolic and diastolic blood pressure change” value ([2]; first four hours after dosing, 0.4 mg/kg iv two step infusion) was “small increase in the arithmetic mean of systolic and diastolic blood pressure”. For the same compound, the Pulse rate change ([2]; first hour after dosing, 0.4 mg/kg iv two step infusion) was “decrease in pulse rate”, the Safety and tolerability [2] was “safe and well tolerated” and the Safety and tolerability ([2]; listed as TEDI) was “safe and well tolerated”. For the same compound, the “Conversions in AF/AFL patients” value [3] was “did not produce any conversions”.
